{"source": "patent US20230201207A1", "about": "“COMBINATION CANCER THERAPY USING N2-QUINOLINE OR ISOQUINOLINE SUBSTITUTED PURINE DERIVATIVES” (SHANGHAI HUAYU BIOTECHNOLOGY CO., LTD., priority 2020, published 2023)", "key": {"[1]": {"test_system": "PDGFR", "test": "Inhibition of PDGFR phosphorylation", "format": "biochemical", "source_text": "(§1) FLT3 is a class III receptor tyrosine kinase and plays an important role in hematopoiesis and lymphocyte development. […] Wang et al found over 60% of 82 leukemia cell lines were FLT3 positive (Wang Y et al., (2006) Journal of Experimental Hematology 14(3): 446-449). […] Thus, the compounds of the disclosure with high inhibitory effect on FLT3 function may be good candidates for leukemia treatment."}, "[2]": {"test_system": "AKT", "test": "Inhibition of AKT phosphorylation", "format": "biochemical", "source_text": "as §1"}, "[3]": {"test_system": "CT-26 WT cells", "test": "Anti-tumor effect in CT-26 WT tumor-bearing BALB/c mice", "format": "in vivo", "details": "for Average tumor size: Anti-m-PD-1 10 mg/kg I.P., Compound A 40 mg/kg P.O.", "description": "(§2) CT-26 WT cells were maintained at 37° C. in 5% CO2 in RPMI 1640 medium (10-040-CV, Corning cellgro) supplemented with 10% FBS (10270-106, GIBCO) and used before the 10th subculture. At Day 0, 45 BALB/c female mice, 5-6 weeks old, were each subcutaneously injected with about 200.0 μL. of the CT-26 WT cell medium containing about 5×10^5 cells.\n(§3) At Day 9, 32 tumor-bearing mice were randomly allocated to four groups according to their tumor volumes, 8 mice per group. The rest were subject to euthanasia.\n(§4) The four groups of animals were administered with an anti-m-PD-1 antibody (BE0146, BioXcell) in PBS (21-040-CVR, BioXcell) at 1.0 mg/mL, Compound A in saline at 4.0 mg/mL, the anti-m-PD-1 antibody in combination with Compound A, and the control vehicle (saline), respectively, at doses shown in Table 1 below.\n(§5) Mice were observed every day for their physical conditions and activities, and mice body weight and tumor volume were measured every Tuesday, Thursday and Sunday. The tumor volume (V) was calculated as (length×width^2)/2.\n(§6) At Day 23, mice were subject to euthanasia, from which tumors were collected, weighed and photographed. Mice body weights, tumor sizes and tumor weights were analyzed using the t-test in SPSS, and group differences were deemed statistically significant when the p-value was 0.05 or less.\nTumor growth inhibition (TGI) was calculated based on tumor weight or tumor volume. Further, Zheng-Jun Jin's Q value was calculated using the formula Q=EA+B/(EA+EB−EA×EB) to assess the combined effect of the anti-PD-1 antibody and Compound A, wherein EA+B, EA, and EB referred to the TGIs of the combination therapy, anti-PD-1 administration and Compound A administration, respectively. A Q value higher than 1.15 indicated a synergistic or additive effect."}, "[4]": {"test": "Body weight and survival of CT-26 WT tumor-bearing BALB/c mice", "format": "in vivo", "details": "for Average body weight: Anti-m-PD-1 10 mg/kg I.P., Compound A 40 mg/kg P.O.", "description": "as §2, §3, §4, §5, §6"}, "[5]": {"biological_target": "PI3K α isoform (Homo sapiens, UniProt P42336)", "sequence (P42336 whole entry, canonical isoform)": "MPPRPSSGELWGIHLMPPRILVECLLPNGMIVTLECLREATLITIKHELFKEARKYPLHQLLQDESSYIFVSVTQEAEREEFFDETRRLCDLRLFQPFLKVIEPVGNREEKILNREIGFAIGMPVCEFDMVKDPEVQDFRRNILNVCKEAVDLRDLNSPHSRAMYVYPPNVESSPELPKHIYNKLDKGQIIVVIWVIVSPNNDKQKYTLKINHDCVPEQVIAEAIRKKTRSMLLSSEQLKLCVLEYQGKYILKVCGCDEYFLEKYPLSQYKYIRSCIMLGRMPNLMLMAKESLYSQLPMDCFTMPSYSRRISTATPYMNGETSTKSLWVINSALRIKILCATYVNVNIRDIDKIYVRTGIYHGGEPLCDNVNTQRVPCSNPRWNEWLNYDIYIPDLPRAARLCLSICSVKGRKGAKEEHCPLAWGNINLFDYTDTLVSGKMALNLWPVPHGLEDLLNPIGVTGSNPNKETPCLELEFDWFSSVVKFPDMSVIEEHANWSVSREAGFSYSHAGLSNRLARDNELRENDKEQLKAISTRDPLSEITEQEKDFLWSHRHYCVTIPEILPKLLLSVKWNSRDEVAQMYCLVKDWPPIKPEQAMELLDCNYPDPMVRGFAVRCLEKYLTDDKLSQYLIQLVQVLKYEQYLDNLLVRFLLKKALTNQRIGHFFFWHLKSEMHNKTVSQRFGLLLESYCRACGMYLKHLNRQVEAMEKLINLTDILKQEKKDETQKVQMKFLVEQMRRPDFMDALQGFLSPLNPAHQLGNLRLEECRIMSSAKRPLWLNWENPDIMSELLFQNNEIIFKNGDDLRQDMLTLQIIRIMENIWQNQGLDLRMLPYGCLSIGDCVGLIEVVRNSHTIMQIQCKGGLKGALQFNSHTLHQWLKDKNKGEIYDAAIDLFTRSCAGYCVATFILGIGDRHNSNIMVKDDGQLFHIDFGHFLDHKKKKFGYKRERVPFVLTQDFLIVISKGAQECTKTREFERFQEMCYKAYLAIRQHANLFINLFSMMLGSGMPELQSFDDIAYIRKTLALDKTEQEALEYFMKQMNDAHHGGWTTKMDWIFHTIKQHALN", "sequence (P27986 whole entry partner, canonical isoform)": "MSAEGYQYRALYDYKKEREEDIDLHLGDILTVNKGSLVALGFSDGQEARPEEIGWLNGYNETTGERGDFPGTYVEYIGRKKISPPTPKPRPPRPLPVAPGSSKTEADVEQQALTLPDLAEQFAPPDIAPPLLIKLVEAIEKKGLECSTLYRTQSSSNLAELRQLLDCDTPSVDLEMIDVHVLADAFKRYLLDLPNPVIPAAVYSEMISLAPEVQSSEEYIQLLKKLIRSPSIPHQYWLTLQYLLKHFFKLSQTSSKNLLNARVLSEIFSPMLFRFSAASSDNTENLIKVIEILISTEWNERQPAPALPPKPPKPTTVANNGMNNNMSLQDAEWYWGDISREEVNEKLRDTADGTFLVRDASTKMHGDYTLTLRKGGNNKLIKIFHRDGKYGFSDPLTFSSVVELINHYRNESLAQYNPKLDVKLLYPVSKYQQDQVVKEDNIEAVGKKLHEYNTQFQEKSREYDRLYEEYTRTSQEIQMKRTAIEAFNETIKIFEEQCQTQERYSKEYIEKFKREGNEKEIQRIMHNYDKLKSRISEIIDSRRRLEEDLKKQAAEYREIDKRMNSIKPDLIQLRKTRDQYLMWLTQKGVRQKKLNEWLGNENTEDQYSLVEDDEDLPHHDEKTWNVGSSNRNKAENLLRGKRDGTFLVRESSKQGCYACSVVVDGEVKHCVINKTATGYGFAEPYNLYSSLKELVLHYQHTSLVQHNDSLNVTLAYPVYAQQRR"}, "[6]": {"biological_target": "PI3K β isoform (Homo sapiens, UniProt P42338)", "sequence (P42338 whole entry, canonical isoform)": "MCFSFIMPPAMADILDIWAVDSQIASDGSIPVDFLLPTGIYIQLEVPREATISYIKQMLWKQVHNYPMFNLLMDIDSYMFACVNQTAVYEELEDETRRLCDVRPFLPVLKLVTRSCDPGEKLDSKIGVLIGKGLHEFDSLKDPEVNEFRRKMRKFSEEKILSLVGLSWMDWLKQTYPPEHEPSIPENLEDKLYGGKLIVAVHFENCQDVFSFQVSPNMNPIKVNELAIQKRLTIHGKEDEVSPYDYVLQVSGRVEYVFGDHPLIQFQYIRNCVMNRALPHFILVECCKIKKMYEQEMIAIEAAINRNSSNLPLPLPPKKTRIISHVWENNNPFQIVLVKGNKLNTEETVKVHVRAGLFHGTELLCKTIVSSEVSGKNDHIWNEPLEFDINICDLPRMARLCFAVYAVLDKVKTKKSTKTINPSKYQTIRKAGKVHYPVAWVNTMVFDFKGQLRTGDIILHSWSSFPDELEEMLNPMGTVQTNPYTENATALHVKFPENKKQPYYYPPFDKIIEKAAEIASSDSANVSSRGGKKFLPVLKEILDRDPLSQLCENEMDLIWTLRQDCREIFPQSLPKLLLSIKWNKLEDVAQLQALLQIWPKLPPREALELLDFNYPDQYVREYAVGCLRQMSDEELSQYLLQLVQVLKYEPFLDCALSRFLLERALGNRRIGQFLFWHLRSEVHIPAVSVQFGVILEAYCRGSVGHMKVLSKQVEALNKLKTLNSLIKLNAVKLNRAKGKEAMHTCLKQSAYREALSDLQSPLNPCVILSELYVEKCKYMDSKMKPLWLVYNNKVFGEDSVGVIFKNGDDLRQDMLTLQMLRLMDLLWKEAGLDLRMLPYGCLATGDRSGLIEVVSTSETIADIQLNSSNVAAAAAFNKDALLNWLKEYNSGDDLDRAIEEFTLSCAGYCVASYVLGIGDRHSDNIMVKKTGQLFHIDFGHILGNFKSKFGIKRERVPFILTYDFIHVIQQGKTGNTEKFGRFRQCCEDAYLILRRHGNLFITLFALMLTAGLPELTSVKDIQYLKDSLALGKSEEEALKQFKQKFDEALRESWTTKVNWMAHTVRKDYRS", "sequence (P27986 whole entry partner, canonical isoform)": "as the sequence (P27986 whole entry partner, canonical isoform) above"}, "[7]": {"biological_target": "PI3K γ isoform (Homo sapiens, UniProt P48736)", "sequence (P48736 whole entry, canonical isoform)": "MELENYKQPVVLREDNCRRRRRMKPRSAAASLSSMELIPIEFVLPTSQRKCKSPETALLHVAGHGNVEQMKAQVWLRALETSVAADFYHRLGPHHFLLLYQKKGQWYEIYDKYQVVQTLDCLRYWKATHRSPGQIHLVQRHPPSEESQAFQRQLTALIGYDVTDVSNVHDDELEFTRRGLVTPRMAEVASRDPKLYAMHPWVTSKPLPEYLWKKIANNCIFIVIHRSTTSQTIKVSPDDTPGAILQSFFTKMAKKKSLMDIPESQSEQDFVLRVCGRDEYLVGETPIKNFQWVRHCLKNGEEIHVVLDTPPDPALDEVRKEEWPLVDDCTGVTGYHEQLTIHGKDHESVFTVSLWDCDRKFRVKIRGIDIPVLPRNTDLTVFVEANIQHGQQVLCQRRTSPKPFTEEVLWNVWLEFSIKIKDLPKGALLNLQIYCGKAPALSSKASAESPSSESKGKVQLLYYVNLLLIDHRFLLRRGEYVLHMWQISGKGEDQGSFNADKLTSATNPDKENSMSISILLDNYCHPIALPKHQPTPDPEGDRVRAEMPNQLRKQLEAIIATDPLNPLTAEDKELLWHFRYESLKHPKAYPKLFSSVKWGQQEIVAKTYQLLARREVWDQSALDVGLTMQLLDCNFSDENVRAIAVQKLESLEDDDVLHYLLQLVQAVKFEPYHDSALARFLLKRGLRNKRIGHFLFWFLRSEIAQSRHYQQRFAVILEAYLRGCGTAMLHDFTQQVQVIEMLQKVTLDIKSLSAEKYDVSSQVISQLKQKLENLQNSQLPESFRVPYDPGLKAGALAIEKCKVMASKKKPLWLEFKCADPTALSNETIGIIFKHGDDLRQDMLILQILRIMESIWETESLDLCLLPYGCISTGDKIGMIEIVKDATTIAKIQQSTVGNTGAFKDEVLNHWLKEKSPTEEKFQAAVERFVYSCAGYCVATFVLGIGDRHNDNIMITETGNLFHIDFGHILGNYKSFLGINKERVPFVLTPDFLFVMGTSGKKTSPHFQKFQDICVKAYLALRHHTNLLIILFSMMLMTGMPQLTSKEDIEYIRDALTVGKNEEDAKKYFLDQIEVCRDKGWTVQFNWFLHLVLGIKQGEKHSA", "test": "PI3K isoform inhibition, γ isoform (method of CN104513254A)"}, "[8]": {"details": "human, in vivo; cited from earlier work"}}}
{"compound": "c1cnc2ccc(Nc3nc(NC4CC4)c4nc[nH]c4n3)cc2c1", "note": "[Compound A]", "values": [{"measurement": "EC50", "setting": "[1]", "result": "~1", "unit": "µM"}, {"measurement": "EC50", "setting": "[2]", "result": "~0.1", "unit": "µM"}, {"measurement": "Average tumor size", "setting": "[3]; Day 9 (allocation)", "result": 176.94, "unit": "mm^3"}, {"measurement": "Average tumor size", "setting": "[3]; Day 10", "result": 272.49, "unit": "mm^3"}, {"measurement": "Average tumor size", "setting": "[3]; Day 12", "result": 492.26, "unit": "mm^3"}, {"measurement": "Average tumor size", "setting": "[3]; Day 14", "result": 672.51, "unit": "mm^3"}, {"measurement": "Average tumor size", "setting": "[3]; Day 16", "result": 876.22, "unit": "mm^3"}, {"measurement": "Average tumor size", "setting": "[3]; Day 18", "result": 1099.45, "unit": "mm^3"}, {"measurement": "Average tumor size", "setting": "[3]; Day 20", "result": 1348.89, "unit": "mm^3"}, {"measurement": "Average tumor size", "setting": "[3]; Day 22", "result": 1698.25, "unit": "mm^3"}, {"measurement": "Tumor volume based TGI", "setting": "[3]; Day 23", "result": 19.35, "unit": "%"}, {"measurement": "Tumor weight based TGI", "setting": "[3]; Day 23", "result": 31.71, "unit": "%"}, {"measurement": "Average tumor size", "setting": "[3]; Day 23", "result": 1870.89, "unit": "mm^3"}, {"measurement": "Tumor weight, Average", "setting": "[3]; group average at Day 23, 8 mice", "result": 1.93, "unit": "g"}, {"measurement": "Tumor weight, Mouse no. 1", "setting": "[3]; individual tumor isolated at Day 23, Mouse no. 1", "result": 1.14, "unit": "g"}, {"measurement": "Tumor weight, Mouse no. 2", "setting": "[3]; individual tumor isolated at Day 23, Mouse no. 2", "result": 2.11, "unit": "g"}, {"measurement": "Tumor weight, Mouse no. 3", "setting": "[3]; individual tumor isolated at Day 23, Mouse no. 3", "result": 2.11, "unit": "g"}, {"measurement": "Tumor weight, Mouse no. 4", "setting": "[3]; individual tumor isolated at Day 23, Mouse no. 4", "result": 0.89, "unit": "g"}, {"measurement": "Tumor weight, Mouse no. 5", "setting": "[3]; individual tumor isolated at Day 23, Mouse no. 5", "result": 1.68, "unit": "g"}, {"measurement": "Tumor weight, Mouse no. 6", "setting": "[3]; individual tumor isolated at Day 23, Mouse no. 6", "result": 2.16, "unit": "g"}, {"measurement": "Tumor weight, Mouse no. 7", "setting": "[3]; individual tumor isolated at Day 23, Mouse no. 7", "result": 2.73, "unit": "g"}, {"measurement": "Tumor weight, Mouse no. 8", "setting": "[3]; individual tumor isolated at Day 23, Mouse no. 8", "result": 2.64, "unit": "g"}, {"measurement": "Average body weight", "setting": "[4]; Day 9 (allocation)", "result": 15.59, "unit": "g"}, {"measurement": "Average body weight", "setting": "[4]; Day 10", "result": 15.16, "unit": "g"}, {"measurement": "Average body weight", "setting": "[4]; Day 12", "result": 15.86, "unit": "g"}, {"measurement": "Average body weight", "setting": "[4]; Day 14", "result": 15.91, "unit": "g"}, {"measurement": "Average body weight", "setting": "[4]; Day 16", "result": 16.46, "unit": "g"}, {"measurement": "Average body weight", "setting": "[4]; Day 18", "result": 16.75, "unit": "g"}, {"measurement": "Average body weight", "setting": "[4]; Day 20", "result": 17.01, "unit": "g"}, {"measurement": "Average body weight", "setting": "[4]; Day 22", "result": 17.72, "unit": "g"}, {"measurement": "Mice weight with the tumor weight deducted", "setting": "[4]; Day 23", "result": 16.22, "unit": "g"}, {"measurement": "Average body weight", "setting": "[4]; Day 23", "result": 18.15, "unit": "g"}, {"measurement": "EC50, PI3K α isoform inhibition", "setting": "[5]", "result": "μM level"}, {"measurement": "EC50, PI3K β isoform inhibition", "setting": "[6]", "result": "μM level"}, {"measurement": "EC50, PI3K γ isoform inhibition", "setting": "[7]", "result": "μM level"}]}
{"compound": "Ipilimumab", "values": [{"measurement": "Patients who experienced immune-related adverse effects", "setting": "[8]", "result": 64, "unit": "%"}]}
